The values below are quoted from earlier work in patent US10755801B2, “Identifying peptides having T-cell-exposed motifs with known frequency of occurrence in a reference database” (IOGENETICS, LLC, priority 2014, dated 2020).

This series relates to CD8+ responses, HLA A 0201 restricted. To be noted: MART-1 peptides, A*0201, melanoma patients; Kawakami.

Ends that are not written are not given here.

Consider GIGILTVIL, for which the “CD8+ T-cell response” value is given as “stimulated a response”.
